Results on 54 compounds are retold here after PubChem BioAssay AID720623 (The Scripps Research Institute Molecular Screening Center, 2013).

For orientation: inhibition means the drop in the measured response relative to a control, in per cent.

Active and inactive are the calls of the source. No rule for the calls is given here.

The experiment has as its system methionyl-tRNA synthetase (Trypanosoma brucei brucei). Kind of experiment: inhibition of trypanosomal MetRS charging activity – biochemical, radioactivity, assay provider, counter-screen for T. brucei MetRS inhibitor project, late-stage follow-up (AID 720623). Particulars: Recombinant T. brucei MetRS enzyme, [3H]methionine tRNA aminoacylation, filter scintillation, 120 min, stronger effect = higher value.

On to `O=C(NCc1nc2ccccc2[nH]1)C1=C[C@@H](c2ccc(Br)cc2)C[C@@H](OCc2ccc(CO)cc2)O1`, for which the inhibition is 97.6% (at 10 µM) and 62.1% (inhibition, at 1 µM).
Taken in the same sequence, the figures for `CC(C)OCCCN1CC(=O)N2C(c3cccc([N+](=O)[O-])c3)c3[nH]c4ccccc4c3C[C@H]2C1=O` (stereo partly drawn) were 93.1% and 50%.
Taken in the same sequence, the figures for `O=C(CCC(=O)Nc1cccc([N+](=O)[O-])c1)NN=Cc1cccs1` were 74.3% and 6.25%.
Regarding `O=C(NNC(=O)c1ccc(-n2cncn2)c([N+](=O)[O-])c1)c1ccc(Cl)cc1`, the inhibition runs as follows: (at 10 µM) 73%; (inhibition, at 1 µM) 7.36%.
Taken in the same sequence, the figures for `O=C(NCc1nc2ccccc2[nH]1)C1=C[C@H](c2ccc(Br)cc2)C[C@H](OCc2ccc(CO)cc2)O1` were 94.6% and 50.3%.
For `Brc1cnc2nc(SCc3nc4ccccc4[nH]3)[nH]c2c1`, the inhibition is, setting by setting: (at 10 µM) 84.9%; (inhibition, at 1 µM) 23.7%.
Taken in the same sequence, the figures for `O=C(Cn1cnc2ccccc21)Nc1cccc([N+](=O)[O-])c1` were 91.9% and 44.9%.
As for `CCO[C@H]1OC(C(=O)NCc2nc3ccccc3[nH]2)=C[C@@H](c2ccc(Br)cc2)[C@@H]1CCCO`, the inhibition (at 10 µM) is 81.6% and the inhibition (inhibition, at 1 µM) amounted to 0.88%.
On to `CC(C)(C)[C@@H]1C=C(C(=O)NCc2nc3ccccc3[nH]2)O[C@H](OCc2ccc(CO)cc2)C1`, for which the inhibition was 84.8% (at 10 µM) and 30.8% (inhibition, at 1 µM).
In the case of `CCCCCCCCCC1NC(C(=O)O)Cc2c1[nH]c1ccccc21` (stereo not drawn), the inhibition (at 10 µM) is 93.2% and the inhibition (inhibition, at 1 µM) was determined as 64.7%.
Turning to `O=C(NCc1nc2ccccc2[nH]1)C1=C[C@@H](c2ccc3c(c2)OCO3)C[C@@H](OCCCCO)O1`, the inhibition (at 10 µM) is 93.7% and the inhibition (inhibition, at 1 µM) turned out to be 50.4%.
Taken in the same sequence, the figures for `CN(CC(=O)Nc1ccc(Cl)cc1)C(=O)c1ccc(-n2cncn2)c([N+](=O)[O-])c1` were 92.5% and 38%.
With `O=C(N/C(=C\c1cccnc1)c1nc2ccccc2[nH]1)c1cccc(Br)c1`, the inhibition (at 10 µM) is 71.7% and the inhibition (inhibition, at 1 µM) was found to be 14.4%.
Taken in the same sequence, the figures for `CCOC(=O)N1CCC(Nc2c(Nc3ccc(F)cc3)c(=O)c2=O)CC1` were 72.7% and 28.4%.
Taken in the same sequence, the figures for `O=C(Nc1ccc(F)c(Cl)c1)C1CC(=O)n2c(nc3ccccc32)N1` (stereo not drawn) were 90.3% and 44.9%.
For `O=C(NCc1nc2ccccc2[nH]1)C1=C[C@@H](c2ccc(Br)cc2)C[C@@H](OCCCCO)O1`, the inhibition reads like this: (at 10 µM) 99.9%; (inhibition, at 1 µM) 84.2%.
Taken in the same sequence, the figures for `O=C(NCc1nc2ccccc2[nH]1)C1=C[C@@H](C2CC2)C[C@@H](OCc2ccc(CO)cc2)O1` were 93.6% and 52.8%.
Take `O=C(CN1CCSC1=NCc1ccccc1)c1ccc(Cl)c(Cl)c1`: the inhibition was 28% (inactive) (at 10 µM) and -1.95% (inhibition, at 1 µM).
On to `O=C(NNC(=O)c1cc(-c2ccc(Cl)c(Cl)c2)nc2ccccc12)Nc1ccccc1`, for which the inhibition was 85.5% (at 10 µM) and 59.7% (inhibition, at 1 µM).
Regarding `COc1ccc2[nH]c3nc(SCC(=O)Nc4ccc5c(c4)OCO5)nnc3c2c1`, the inhibition (at 10 µM) was 65.6% and the inhibition (inhibition, at 1 µM) stood at 63.4%.
Taken in the same sequence, the figures for `Cc1[nH]c2ccc(Br)cc2c(=O)c1CN1CCCCCC1` were 86.6% and 19.4%.
Taken in the same sequence, the figures for `COc1cccc(NC(=O)CSc2nnc3c(n2)[nH]c2ccc(C)cc23)c1` were 94.2% and 97.7%.
Taken in the same sequence, the figures for `O=C(NCc1nc2ccccc2[nH]1)C1=C[C@H](c2ccccc2)C[C@H](OCc2ccc(CO)cc2)O1` were 61.8% and 7.32%.
Take `O=C(NCc1nc2ccccc2[nH]1)C1=C[C@H](c2ccc3c(c2)OCO3)C[C@H](OCCCCO)O1`: the inhibition is 79.4% (at 10 µM) and 5.68% (inhibition, at 1 µM).
Taken in the same sequence, the figures for `O=C(NCc1nc2ccccc2[nH]1)C1=C[C@@H](c2ccccc2)C[C@@H](OCc2ccc(CO)cc2)O1` were 94.3% and 44.6%.
Taken in the same sequence, the figures for `O=C1[C@@H]2Cc3c([nH]c4ccccc34)C(c3cccc([N+](=O)[O-])c3)N2C(=O)CN1CCCO` (stereo partly drawn) were 97.5% and 63.2%.
Taken in the same sequence, the figures for `COc1ccc(OCC(O)CNC(=O)Nc2ccc(Cl)cc2)cc1` (stereo not drawn) were 61.9% and 28.9%.
Consider `O=C(NCc1nc2ccccc2[nH]1)C1=C[C@@H](c2csc3ccccc23)C[C@@H](OCCCCO)O1`, for which the inhibition was 89.2% (at 10 µM) and 20.6% (inhibition, at 1 µM).
Taken in the same sequence, the figures for `COc1ccc(CNC(=O)CSc2nnc3c(n2)[nH]c2ccc(F)cc23)cc1` were 89.6% and 47.5%.
With `O=C(NCc1nc2ccccc2[nH]1)C1=C[C@H](c2csc3ccccc23)C[C@H](OCCCCO)O1`, the inhibition is 97.8% (at 10 µM) and 71.1% (inhibition, at 1 µM).
Taken in the same sequence, the figures for `COc1ccccc1-n1c(SCC(=O)Nc2ccc(Cl)cc2)nc(O)c(Cc2ccccc2)c1=O` were 67% and 2.04%.
In the case of `CN(Cc1cc(Cl)cc(Cl)c1)[C@H]1C[C@H]2c3[nH]c4ccccc4c3CCN2C(=O)[C@H]1CO`, the inhibition by setting is: (at 10 µM) 101%; (inhibition, at 1 µM) 95.1%.
As for `O=C(CC=NOCc1ccc([N+](=O)[O-])cc1)Nc1ccc(Br)cc1`, the inhibition was 84.7% (at 10 µM) and 32.2% (inhibition, at 1 µM).
Taken in the same sequence, the figures for `O=C(NCc1nc2ccccc2[nH]1)C1=C[C@H](C2CC2)C[C@H](OCc2ccc(CO)cc2)O1` were 56.9% and -3.3%.
Taken in the same sequence, the figures for `O=C(CC(=O)Nc1cccc(Cl)c1)NN=Cc1ccccc1` were 81.1% and 28.2%.
Regarding `O=C1CC(N(CCc2ccccc2)C(=S)Nc2ccccc2)C(=O)N1c1ccc(Br)cc1` (stereo not drawn), the inhibition by setting is: (at 10 µM) 97.3%; (inhibition, at 1 µM) 84.2%.
Taken in the same sequence, the figures for `Cc1ccc(NC(=O)CN(C)C(=O)CCSc2ccc(F)cc2)cc1` were 67.3% and -1.05%.
With `CC(=O)c1c[nH]c(C(=O)NCc2cccc(C(F)(F)F)c2)c1`, the inhibition is, setting by setting: (at 10 µM) 92.7%; (inhibition, at 1 µM) 44.6%.
Taken in the same sequence, the figures for `O=C(CC=NOCc1ccc([N+](=O)[O-])cc1)Nc1ccc(Cl)cc1` were 86.5% and 28.6%.
Take `Clc1ccc(OCCSCc2nc3ccccc3[nH]2)cc1`: the inhibition was 44.8% (inactive) (at 10 µM) and -2.58% (inhibition, at 1 µM).
In the case of `CC(=O)c1ccc(N2CCN(C(=O)CCCn3c(=O)[nH]c4ccc(Br)cc4c3=O)CC2)cc1`, the inhibition reads like this: (at 10 µM) 97%; (inhibition, at 1 µM) 68.1%.
Taken in the same sequence, the figures for `O=C(NCCc1nc2ccccc2[nH]1)c1ccc(Cl)c([N+](=O)[O-])c1` were 99.6% and 89.8%.
Take `O=C1CC(SCc2nc3ccccc3[nH]2)C(=O)N1c1cccc(Cl)c1` (stereo not drawn): the inhibition runs as follows: (at 10 µM) 52.6%; (inhibition, at 1 µM) 19.7%.
Taken in the same sequence, the figures for `Clc1ccc(-c2nnc(SCc3nc4ccccc4[nH]3)o2)c(Cl)c1` were 97% and 75.3%.
For `O=C(Cn1cc(C(=O)C(=O)N2CCOCC2)c2ccccc21)Nc1cccc(C(F)(F)F)c1`, the inhibition reads like this: (at 10 µM) 100%; (inhibition, at 1 µM) 87.5%.
`C[C@H](O)[C@@H]1C(=O)N2CCc3c([nH]c4ccccc34)[C@@H]2C[C@@H]1N(C)Cc1ccc2c(c1)OCO2`: the inhibition (at 10 µM) was 80.4% and the inhibition (inhibition, at 1 µM) is 1.98%.
On to `CC(C)(C)[C@H]1C=C(C(=O)NCc2nc3ccccc3[nH]2)O[C@@H](OCc2ccc(CO)cc2)C1`, for which the inhibition runs as follows: (at 10 µM) 83.8%; (inhibition, at 1 µM) 21.6%.
As to `CN1CC(=O)N2C(c3cccc([N+](=O)[O-])c3)c3[nH]c4ccccc4c3C[C@H]2C1=O` (stereo partly drawn), the inhibition was 96.7% (at 10 µM) and 57.7% (inhibition, at 1 µM).
Take `O=C(C[C@H]1C(=O)N(Cc2ccccc2)C[C@@H]1c1ccc(Br)cc1)Nc1ccc(Br)cc1`: the inhibition by setting is: (at 10 µM) 94.4%; (inhibition, at 1 µM) 55.7%.
For `O=C(NCc1nc2ccccc2[nH]1)C1=C[C@H](c2ccc(Br)cc2)C[C@H](OCCCCO)O1`, the inhibition (at 10 µM) is 94.3% and the inhibition (inhibition, at 1 µM) amounted to 51.6%.
Consider `CCO[C@@H]1OC(C(=O)NCc2nc3ccccc3[nH]2)=C[C@H](c2ccc(Br)cc2)[C@H]1CCCO`, for which the inhibition runs as follows: (at 10 µM) 64%; (inhibition, at 1 µM) 6.72%.
Taken in the same sequence, the figures for `CC(CC(=O)Nc1cccc(Br)c1)=NNC(=O)c1ccc(O)cc1O` were 90.5% and 36.5%.
Taken in the same sequence, the figures for `COc1ccccc1NS(=O)(=O)c1cccc(NC(=O)Nc2ccccc2)c1` were 95.1% and 57%.
Taken in the same sequence, the figures for `Oc1c(Cl)cc(Cl)cc1CNc1nc2ccccc2[nH]1` were 98.7% and 88.3%.
